This note sets out measurements from paper PMC8743659, “C1632 suppresses the migration and proliferation of non‐small‐cell lung cancer cells involving LIN28 and FGFR1 pathway” (Journal of Cellular and Molecular Medicine, 2021).

What all share (type): cell-based, human
The test system of one series is LIN28. Kind of series: qPCR of LIN28 mRNA in NSCLC cells. Conditions: A549 and A549R cells, 15, 30 and 60 mg/L, 5 days; especially in A549R. Here is the method:
Total RNA was extracted using RNAiso Plus (Takara) according to the manufacturer's instructions. cDNA was synthesized using PrimeScript II first‐strand cDNA Synthesis Kit (Takara), followed by amplification with RealStar Power SYBR Mixture (GenStar). miRNAs were quantified using the stem‐loop method, and U6 snRNA was adopted as internal control. Specific primer sequences were designed as previously reported.[40] qPCR was carried out with a LightCycler 480 Real‐Time PCR system (Roche). Data were analysed using the comparative Ct (2−ΔΔCt) method.[41] All experiments were performed in three independent experiments. qPCR primers for mRNA detection were as follows: GAPDH‐forward 5′‐[…]‐3′; GAPDH‐reverse 5′‐[…]‐3′; LIN28A‐forward 5′‐[…]‐3′; LIN28A‐reverse 5′‐GCGGTCATGGACA GGAAGCC‐3′; LIN28B‐forward 5′‐[…]‐3′; LIN28B‐reverse 5′‐[…]‐3′.
(In qPCR the cycle at which signal appears reflects the starting amount.)

In series [1] the test system is A549 cells. As to the kind of experiment: Cell adhesion assay. The note with it: A549, fibronectin-coated plate, concentration-dependent. Here is the method: (§1) The cell adhesion assay was performed as indicated previously.[38] Briefly, the 96‐well plate was coated with human fibronectin (Millipore), and then cells were seeded into the 96‐well plate and cultured for another 1 h at 37°C in a 5% CO2 incubator. Finally, rinsing the plate before fixed with 10% formalin and stained with crystal violet. As followed, wash the plate with ddH2O and add 100 μl acetic acid (33%) into the plate to dissolve the crystal violet. The absorbance at 560 nm was detected by Synergy H1 Multi‐Mode Reader (BioTek). Relative number of cells attaching to extracellular matrix was evaluated using the following equation: mean OD of treated cells/mean OD of control cells.

Series [2] concerns A549R cells. Kind of series: Cell adhesion assay. Conditions: fibronectin-coated plate, concentration-dependent. On the procedure:
as §1

In series [3] the test system is A549 cells. As to the kind of experiment: MTT cell viability assay. The note with it: A549, high dose 60 mg/L. On the procedure:
(§2) The cell viability of MRC5, A549, and A549R were assessed by the 3‐(4,5‐dimethylthiazol‐2‐yl)‐2,5‐diphenyltetrazolium bromide (MTT) assay.[39] Cells were treated with indicated concentration of C1632 or 0.01% DMSO (Control) for 48 h before 20 μl/well MTT (0.5 mg/ml) was added for another 4 h. The reaction product formazan was dissolved in 100 μl DMSO and the absorbance at 560 nm was determined by the spectrophotometer (DTX880, Beckman Coulter).

For series [4], the system named is A549R cells. As to the kind of experiment: MTT cell viability assay. Conditions: high dose 60 mg/L. On the procedure: as §2
For orientation: Tetrazolium assays rely on reduction of a dye to a coloured formazan, in cell work by metabolically active cells.

The next series has as its system MRC5 cells. Kind of series: MTT cell viability assay. Conditions: MRC5, high dose 60 mg/L. On the procedure:
as §2

Consider `CC(=O)N(C)c1cccc(-c2ccc3nnc(C)n3n2)c1` [C1632], for which the “LIN28 mRNA levels” value with LIN28 is “decreased”. Besides, the “cell adhesion to the matrix” value in the series on A549 cells [1] and with A549R cells [2] was “significant decrease” in each case. Besides, the cell viability result with A549 cells [3] and in the series on A549R cells [4] was “decreased the viability” in each case. Moreover, in the series on MRC5 cells, the “cytotoxicity on normal foetal lung fibroblast cells” value is on record as “almost had no cytotoxicity”.
